Reference: patent publication US9732071B2, “Compounds useful as modulators of TRPM8” (Senomyx, Inc., priority 2015, dated 2017)
Converted amounts (≈) assume the structure as drawn. Like-named read-outs stand apart in the source and are kept apart here.

Columns and labels:
Solubility studies = assay type: physicochemical
Experimental: For the sake of comparison, the solubility of Comparative Compound 1, which was previously disclosed in U.S. 2013/0324557 A1, was also measured.

hTRPM8 = biological target: T1, hTRPM8 (Homo sapiens, UniProt Q7Z2W7); assay: hTRPM8 agonist assay in a mammalian cell line stably expressing hTRPM8; assay type: cell-based
T1 construct: expressed in transfected cells
T1 sequence (Q7Z2W7 whole entry): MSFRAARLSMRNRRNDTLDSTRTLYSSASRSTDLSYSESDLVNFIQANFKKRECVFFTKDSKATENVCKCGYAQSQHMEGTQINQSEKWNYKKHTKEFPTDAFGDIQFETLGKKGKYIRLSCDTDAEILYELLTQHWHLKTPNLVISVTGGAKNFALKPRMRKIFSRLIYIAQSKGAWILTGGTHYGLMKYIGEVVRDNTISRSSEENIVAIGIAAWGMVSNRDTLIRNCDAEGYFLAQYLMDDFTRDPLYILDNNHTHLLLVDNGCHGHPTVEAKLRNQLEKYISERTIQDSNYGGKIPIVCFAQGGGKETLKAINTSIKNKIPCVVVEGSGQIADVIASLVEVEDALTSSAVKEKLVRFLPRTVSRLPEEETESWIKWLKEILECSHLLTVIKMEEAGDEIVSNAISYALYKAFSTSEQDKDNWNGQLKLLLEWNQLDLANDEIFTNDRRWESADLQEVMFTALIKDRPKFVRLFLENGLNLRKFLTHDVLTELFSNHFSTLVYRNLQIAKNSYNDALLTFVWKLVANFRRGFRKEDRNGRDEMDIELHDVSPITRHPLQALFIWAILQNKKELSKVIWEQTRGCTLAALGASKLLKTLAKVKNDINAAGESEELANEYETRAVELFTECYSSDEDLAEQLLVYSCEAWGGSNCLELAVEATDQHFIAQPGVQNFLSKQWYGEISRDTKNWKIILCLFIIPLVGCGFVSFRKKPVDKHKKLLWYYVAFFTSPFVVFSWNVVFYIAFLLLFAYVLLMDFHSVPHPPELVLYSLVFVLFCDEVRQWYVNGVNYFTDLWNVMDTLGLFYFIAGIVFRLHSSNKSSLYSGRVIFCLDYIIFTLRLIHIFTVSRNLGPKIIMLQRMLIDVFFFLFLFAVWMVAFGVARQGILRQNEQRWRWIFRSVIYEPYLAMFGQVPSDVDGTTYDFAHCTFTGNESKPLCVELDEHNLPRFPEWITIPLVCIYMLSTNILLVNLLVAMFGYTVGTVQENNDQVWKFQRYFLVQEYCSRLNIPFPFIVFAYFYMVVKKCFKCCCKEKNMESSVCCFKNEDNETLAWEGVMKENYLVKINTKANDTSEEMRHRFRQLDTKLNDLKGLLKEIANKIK
Experimental: A mammalian cell line derivative which stably expresses hTRPM8 was used in biological assays in association with testing the present compounds with cool-tasting or -feeling properties (Servant et al. US 2007/0259354 A1 and references cited therein). Typical compound concentrations tested were 100 μM, 30 μM, 10 μM, 3.3 μM, 1.1 μM, 0.37 μM, 0.12 μM, 0.04 μM, 0.01 μM and more dilutions for very potent compounds. The present compounds have shown strong activity as agonists of hTRPM8. […] For the sake of comparison, the EC50 of Comparative Compound 1, which was previously disclosed in U.S. 2013/0324557 A1 and has the structure

panelists = assay: Cool Line Scale Test (sensory study, cooling intensity versus 45 μM WS-3); assay type: in vivo, human; settings: for lingering effect: cool line scale test; for Sensory Results: cooling compared with 45 μM WS-3: 5 μM compound, Low Sodium Buffer pH ~7.1, 0.1% ethanol, 15 point line scale
Experimental: A typical sensory study is described below followed by Table 5 summarizing sensory results of Compounds 101-105.
All samples made with Low Sodium Buffer (LSB) pH ˜7.1 and contain 0.1% ethanol.
Compounds are rated on a 15 point line scale where 45 μM WS-3 (N-Ethyl-p-menthane-3-carboxamide) is ranked as a 5 in cool intensity. In most cases, the compounds are tested to determine at what concentration the cooling intensity is equivalent to 45 μM WS-3. In each test, the panelist is presented with a 0 μM control sample, a 45 μM WS-3 control sample and the experimental compound sample and asked to rate the cooling intensity of each sample. [0218]

[1] = pH 7.1, aqueous buffer, read-out: Solubility (pH 7.1)
[2] = cell line stably expressing hTRPM8, read-out: EC50
[3] = aqueous buffer, pH 4.0, read-out: Solubility (pH 4.0)

SMILES	Solubility (pH 7.1) (Solubility studies)	solubility (Solubility studies; [1]) [µM]	EC50 (hTRPM8; [2]) [nM]	solubility (Solubility studies; [3]) [µM]	Solubility (pH 4.0) (Solubility studies; pH 4.0)	lingering effect (panelists)	EC50 (hTRPM8) [nM]	Sensory Results: cooling compared with 45 μM WS-3 (panelists)
O=C(COc1ccc(F)cc1)N(Cc1cccs1)c1cc[nH]n1 [Compound 102, 2-(4-flourophenoxy)-N-(1H-pyrazol-5-yl)-N-(thiophen-2-ylmethyl)acetamide]	unexpectedly superior solubility	503 (≈ 167 µg/mL)	10.7	–	–	–	–	–
Cc1cccc(OCC(=O)N(Cc2cccs2)c2cc[nH]n2)c1 [Compound 101, N-(1H-pyrazol-3-yl)-N-(thiophen-2-ylmethyl)-2-(m-tolyloxy)acetamide]	–	152 (≈ 49.8 µg/mL)	6.1	517 (≈ 169 µg/mL)	unexpectedly superior solubility	–	–	–
Cc1ccc(OCC(=O)N(Cc2cccs2)c2ccn[nH]2)cc1 [Comparative Compound 1, reference compound]	–	171 (≈ 56 µg/mL)	0.3	106 (≈ 34.7 µg/mL)	–	–	–	–
Cc1ccc(OCC(=O)N(Cc2cccs2)c2cc[nH]n2)cc1C [Compound 105, 2-(3,4-dimethylphenoxy)-N-(1H-pyrazol-3-yl)-N-(thiophen-2-ylmethyl)acetamide]	–	–	–	–	–	unexpected lingering effect	0.7	–
CCc1ccc(OCC(=O)N(Cc2cccs2)c2cc[nH]n2)cc1 [Compound 104, 2-(4-ethylphenoxy)-N-(1H-pyrazol-3-yl)-N-(thiophen-2-ylmethyl)acetamide]	–	–	< 1	–	–	unexpected lingering effect	–	significantly more cooling
COc1ccc(OCC(=O)N(Cc2cccs2)c2cc[nH]n2)cc1 [Compound 103, 2-(4-methoxyphenoxy)-N-(1H-pyrazol-3-yl)-N-(thiophen-2-ylmethyl)acetamide]	unexpectedly superior solubility	403 (≈ 138 µg/mL)	4.9	–	–	unexpected lingering effect	–	equivalent to the cooling 45
